Tests used:
Format in all cases: biochemical
BTK = molecular target: T1, BTK (Homo sapiens, UniProt Q06187); assay: In vitro BTK kinase assay (BTK-POLYGAT-LS); conditions: IC50 (10 uM ATP)
T1 construct: purchased Upstate 14-552
Description: In vitro BTK Kinase Assay
The purpose of the BTK in vitro assay is to determine compound potency against BTK through the measurement of IC50. […] For a typical assay, a 24 μL aliquot of a ATP/peptide master mix (final concentration; ATP 10 μM, polyGAT 100 nM) in kinase buffer (10 mM Tris-HCl pH 7.5, 10 mM MgCl2, 200 μM Na3PO4, 5 mM DTT, 0.01% Triton X-100, and 0.2 mg/ml casein) is added to each well. […] The assay is incubated for 30 minutes before being stopped with 28 μL of a 50 mM EDTA solution. […] The plate is covered and incubated for 45 minutes at room temperature.

Tec = molecular target: T2, Tec (Homo sapiens, UniProt P42680); assay: In vitro Tec kinase selectivity assay (Tec-POLYGT-LS); conditions: ATP 25 μM
T2 construct: purchased Carna Biosciences 08-182
T2 sequence (P42680 1-631): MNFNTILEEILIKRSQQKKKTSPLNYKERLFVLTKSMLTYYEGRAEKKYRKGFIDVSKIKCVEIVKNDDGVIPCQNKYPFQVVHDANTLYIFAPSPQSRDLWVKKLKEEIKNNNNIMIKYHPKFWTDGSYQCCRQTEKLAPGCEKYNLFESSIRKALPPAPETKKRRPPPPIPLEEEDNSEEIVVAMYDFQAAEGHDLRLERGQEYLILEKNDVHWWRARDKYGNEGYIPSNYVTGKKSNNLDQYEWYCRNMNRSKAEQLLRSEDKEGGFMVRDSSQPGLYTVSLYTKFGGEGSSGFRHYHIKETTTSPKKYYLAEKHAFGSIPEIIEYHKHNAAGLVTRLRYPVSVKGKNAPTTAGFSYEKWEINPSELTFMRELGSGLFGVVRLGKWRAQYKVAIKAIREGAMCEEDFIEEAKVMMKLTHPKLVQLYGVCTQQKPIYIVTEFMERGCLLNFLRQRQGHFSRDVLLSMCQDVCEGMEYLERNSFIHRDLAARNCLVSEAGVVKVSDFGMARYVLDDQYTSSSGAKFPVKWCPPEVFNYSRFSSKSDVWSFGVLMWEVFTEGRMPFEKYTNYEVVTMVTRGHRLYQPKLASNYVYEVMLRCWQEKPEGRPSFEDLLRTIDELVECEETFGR
Description: In Vitro Tec Kinase Selectivity Assay
(§1) The purpose of the Tec in vitro assay is to determine compound potency against Tec through the measurement of IC50. Compound inhibition is measured after monitoring the amount of phosphorylation of a fluorescein-labeled polyGT peptide (Invitrogen PV3610) in the presence of active Tec enzyme (Carna Biosciences 08-182), ATP, and inhibitor. The Tec kinase reaction was done in a black 96 well plate (costar 3694). For a typical assay, a 29 μL aliquot of a ATP/peptide master mix (final concentration; ATP 25 μM, polyGT 100 nM) in kinase buffer (10 mM Tris-HCl pH 7.5, 10 mM MgCl2, 200 μM Na3PO4, 5 mM DTT, 0.01% Triton X-100, and 0.2 mg/ml casein) is added to each well. Next, 1 μL of a 3-fold, 50× compound titration in 100% DMSO solvent is added, followed by adding 20 uL of Tec enzyme mix in 1× kinase buffer (with a final concentration of 0.125 nM). The assay is incubated for 15 minutes before being stopped with 5 μl, of a 220 mM EDTA solution. Aliquots (5 μL) of the kinase reaction are transferred to a low volume white 384 well plate (Corning 3674), and 5 μL of a 2× detection buffer (Invitrogen PV3574, with 2 nM Tb-PY20 antibody, Invitrogen PV3552) is added. The plate is covered and incubated for 45 minutes at room temperature. Time resolved fluorescence (TRF) on Molecular Devices M5 (332 nm excitation; 488 nm emission; 518 nm fluorescein emission) is measured.

Itk = molecular target: T3, Itk (Homo sapiens, UniProt Q08881); assay: Itk kinase selectivity assay (Example 142 procedure, Table 3 modifications); conditions: ATP 10 μM
T3 construct: purchased Carna Bioscience 08-181
T3 sequence (Q08881 1-620): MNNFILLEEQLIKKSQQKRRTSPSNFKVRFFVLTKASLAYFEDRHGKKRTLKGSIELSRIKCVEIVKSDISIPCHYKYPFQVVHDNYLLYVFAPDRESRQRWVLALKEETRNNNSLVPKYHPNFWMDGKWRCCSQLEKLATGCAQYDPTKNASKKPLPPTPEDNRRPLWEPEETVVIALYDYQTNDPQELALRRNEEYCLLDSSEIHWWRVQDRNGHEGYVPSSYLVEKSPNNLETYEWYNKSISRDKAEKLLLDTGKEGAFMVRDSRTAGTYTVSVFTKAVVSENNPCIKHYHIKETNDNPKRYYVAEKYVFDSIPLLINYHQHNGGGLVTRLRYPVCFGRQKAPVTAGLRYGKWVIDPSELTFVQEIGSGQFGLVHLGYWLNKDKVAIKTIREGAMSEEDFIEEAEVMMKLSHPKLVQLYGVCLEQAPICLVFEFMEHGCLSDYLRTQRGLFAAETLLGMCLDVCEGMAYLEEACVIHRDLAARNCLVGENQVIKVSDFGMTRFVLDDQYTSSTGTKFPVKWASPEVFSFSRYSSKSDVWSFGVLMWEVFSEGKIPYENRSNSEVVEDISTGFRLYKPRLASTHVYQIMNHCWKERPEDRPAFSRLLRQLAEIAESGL
Description: as §1
(§2) Using the procedure described in Example 142, with the modifications shown in Table 3, selectivity for Itk, Txk, and Lck was measured.

Lck = molecular target: T4, Lck (Homo sapiens, UniProt P06239); assay: Lck kinase selectivity assay (Example 142 procedure, Table 3 modifications); conditions: ATP 5 μM
T4 construct: purchased Carna Bioscience 08-170
T4 sequence (P06239 whole entry): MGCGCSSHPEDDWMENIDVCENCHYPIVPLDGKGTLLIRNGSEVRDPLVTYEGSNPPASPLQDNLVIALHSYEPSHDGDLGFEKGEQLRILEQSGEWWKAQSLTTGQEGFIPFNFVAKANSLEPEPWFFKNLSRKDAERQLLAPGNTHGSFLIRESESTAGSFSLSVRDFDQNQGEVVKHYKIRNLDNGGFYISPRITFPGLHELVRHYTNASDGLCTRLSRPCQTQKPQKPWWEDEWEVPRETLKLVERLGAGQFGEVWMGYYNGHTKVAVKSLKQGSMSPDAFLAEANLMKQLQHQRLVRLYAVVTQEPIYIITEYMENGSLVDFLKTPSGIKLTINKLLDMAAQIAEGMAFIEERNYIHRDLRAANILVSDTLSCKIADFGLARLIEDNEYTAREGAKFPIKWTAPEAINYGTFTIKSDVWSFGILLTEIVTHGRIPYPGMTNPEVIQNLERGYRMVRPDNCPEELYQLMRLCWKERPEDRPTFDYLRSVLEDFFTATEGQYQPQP
Description: as §1, §2

Txk = molecular target: T5, Txk (Homo sapiens, UniProt P42681); assay: Txk kinase selectivity assay (Example 142 procedure, Table 3 modifications); conditions: ATP 100 μM
T5 construct: purchased Carna Bioscience 08-183
T5 sequence (P42681 1-527): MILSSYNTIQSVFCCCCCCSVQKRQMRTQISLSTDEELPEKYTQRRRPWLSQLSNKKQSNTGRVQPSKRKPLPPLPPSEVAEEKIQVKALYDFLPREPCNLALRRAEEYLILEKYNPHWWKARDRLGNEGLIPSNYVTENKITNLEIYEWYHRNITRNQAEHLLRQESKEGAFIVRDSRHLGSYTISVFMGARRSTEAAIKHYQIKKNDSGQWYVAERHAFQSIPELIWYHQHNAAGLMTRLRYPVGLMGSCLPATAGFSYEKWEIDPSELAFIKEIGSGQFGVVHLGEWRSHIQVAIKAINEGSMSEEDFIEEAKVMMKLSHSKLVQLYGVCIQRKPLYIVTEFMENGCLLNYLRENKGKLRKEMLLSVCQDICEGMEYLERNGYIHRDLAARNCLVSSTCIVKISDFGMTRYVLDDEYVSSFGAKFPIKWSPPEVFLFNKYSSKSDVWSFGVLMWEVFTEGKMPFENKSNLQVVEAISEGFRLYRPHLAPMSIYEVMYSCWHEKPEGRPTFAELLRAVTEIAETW
Description: as §1, §2

T1 sequence (Q06187 whole entry): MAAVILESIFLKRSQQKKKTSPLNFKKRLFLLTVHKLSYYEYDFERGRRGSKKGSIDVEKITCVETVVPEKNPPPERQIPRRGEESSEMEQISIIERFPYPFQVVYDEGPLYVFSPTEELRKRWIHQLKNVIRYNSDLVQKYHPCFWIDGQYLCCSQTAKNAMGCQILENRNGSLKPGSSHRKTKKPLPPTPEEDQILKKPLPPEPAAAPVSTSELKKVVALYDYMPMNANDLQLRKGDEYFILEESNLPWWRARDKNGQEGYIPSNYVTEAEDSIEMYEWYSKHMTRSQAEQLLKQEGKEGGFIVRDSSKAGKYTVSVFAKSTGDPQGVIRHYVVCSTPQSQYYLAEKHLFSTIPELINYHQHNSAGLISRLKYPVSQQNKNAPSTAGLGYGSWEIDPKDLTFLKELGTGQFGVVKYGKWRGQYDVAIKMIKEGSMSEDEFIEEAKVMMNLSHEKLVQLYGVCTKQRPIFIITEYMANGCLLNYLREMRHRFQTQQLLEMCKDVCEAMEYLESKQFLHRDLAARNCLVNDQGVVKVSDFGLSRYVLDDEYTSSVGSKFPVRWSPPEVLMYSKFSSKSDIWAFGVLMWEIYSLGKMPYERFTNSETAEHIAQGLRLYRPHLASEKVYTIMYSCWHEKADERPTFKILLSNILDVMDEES

Structure (SMILES)	IC50 (BTK) [nM]	further results
O=C(CNc1cc(F)cc(Cl)c1)N1CCCC(Nc2ncnc3[nH]ccc23)C1C(F)(F)F (stereo not shown) [Compound 23]	< 100	IC50 (Tec): 100 to 999 nM; IC50 (Itk): 1000 to 10000 nM
C[C@@H]1[C@H](Nc2ncnc3[nH]ncc23)CCCN1C(=O)CNc1cc(F)cc(Cl)c1 [Compound 25]	< 100	IC50 (Tec): 100 to 999 nM; IC50 (Itk): 100 to 999 nM
C[C@@H]1[C@H](Nc2ncnc3[nH]ncc23)CCCN1C(=O)CNc1cc(Cl)cc(Cl)c1 [Compound 29]	< 100	IC50 (Tec): < 100 nM; IC50 (Itk): 100 to 999 nM
CC1C(Nc2ncnc3[nH]ncc23)CCCN1C(=O)CNc1ccccc1S(=O)(=O)N1CCCCC1 (stereo not shown) [Compound 67]	< 100	IC50 (Tec): 100 to 999 nM; IC50 (Itk): 1000 to 10000 nM
C[C@@H]1[C@H](Nc2ncnc3[nH]ccc23)CCCN1C(=O)CNc1cc(Cl)cc(Cl)c1 [Compound 89]	–	IC50 (Tec): < 100 nM; IC50 (Itk): 100 to 999 nM
CC1C(Nc2ncnc3[nH]ccc23)CCCN1C(=O)CNc1cc(Cl)cc(Cl)c1 (stereo not shown) [Compound 105]	–	IC50 (Tec): 100 to 999 nM; IC50 (Itk): 100 to 999 nM; IC50 (Lck): 100 to 999 nM; IC50 (Txk): 1000 to 10000 nM
O=C(CNc1ccccc1F)N1CCC[C@H](Nc2ncnc3[nH]ccc23)C1 [Compound 194]	> 10000	–
O=C(CNc1ccccc1C(F)(F)F)N1CCC[C@H](Nc2ncnc3[nH]ncc23)C1 [Compound 195]	> 10000	–
O=C(CNc1ccccc1C(F)(F)F)N1CCC[C@H](Nc2ncnc3[nH]ccc23)C1 [Compound 197]	> 10000	–
O=C(CNc1ccc(C(F)(F)F)cc1)N1CCC[C@H](Nc2ncnc3[nH]ncc23)C1 [Compound 198]	> 10000	–
O=C(CNc1ccccc1Cl)N1CCC[C@H](Nc2ncnc3[nH]ccc23)C1 [Compound 199]	> 10000	–
O=C(CNc1cccc(Cl)c1)N1CCC[C@H](Nc2ncnc3[nH]ncc23)C1 [Compound 201]	1000 to 10000	–
O=C(CNc1ccccc1Cl)N1CCC[C@H](Nc2ncnc3[nH]ncc23)C1 [Compound 202]	> 10000	–
O=C(CNc1ccccc1F)N1CCC[C@H](Nc2ncnc3[nH]ncc23)C1 [Compound 203]	> 10000	–
O=C(CNc1ccc(C(F)(F)F)cc1)N1CCC[C@H](Nc2ncnc3[nH]ccc23)C1 [Compound 204]	> 10000	–
O=C(CNc1ccc(F)cc1)N1CCC[C@H](Nc2ncnc3[nH]ncc23)C1 [Compound 205]	> 10000	–
O=C([C@H](Nc1cc(Cl)cc(Cl)c1)C1CC1)N1CCC[C@H](Nc2ncnc3[nH]ccc23)C1 [Compound 206]	1000 to 10000	–
O=C([C@H](Nc1cc(Cl)cc(Cl)c1)C1CC1)N1CCC[C@@H](Nc2ncnc3[nH]ccc23)C1 [Compound 207]	100 to 999	–
C[C@@H](Nc1cc(Cl)cc(Cl)c1)C(=O)N1CCC[C@H](Nc2ncnc3[nH]ccc23)C1 [Compound 208]	100 to 999	–

Structure (SMILES)	IC50 (BTK) [nM]	further results
CN(c1ncnc2[nH]ncc12)[C@@H]1CCCN(C(=O)CNc2cc(Cl)cc(Cl)c2)C1 [Compound 211]	< 100	–
CN(c1ncnc2[nH]ncc12)[C@H]1CCCN(C(=O)CNc2cc(Cl)cc(Cl)c2)C1 [Compound 212]	100 to 999	–
CCCN(CC(C)C)S(=O)(=O)c1ccccc1NCC(=O)N1CC[C@@H](C)[C@H](Nc2ncnc3[nH]ncc23)C1 [Compound 213]	> 10000	–
O=C(CNc1cc(F)cc(Cl)c1)N1CCC[C@@H](Nc2ncnc3[nH]ncc23)C1 [Compound 216]	100 to 999	–
CC(C)CN(CC(C)C)S(=O)(=O)c1ccccc1NCC(=O)N1CCC[C@@H](Nc2ncnc3[nH]ccc23)C1 [Compound 218]	100 to 999	–
CC(C)CN(CC(C)C)S(=O)(=O)c1ccccc1NCC(=O)N1CCC[C@H](Nc2ncnc3[nH]ccc23)C1 [Compound 219]	> 10000	–
O=C(CNc1ccccc1S(=O)(=O)N1CCCCC1)N1CCC[C@@H](Nc2ncnc3[nH]ccc23)C1 [Compound 221]	100 to 999	–
O=C([C@H](Nc1cc(F)cc(Cl)c1)C1CC1)N1CCC[C@H](Nc2ncnc3[nH]ncc23)C1 [Compound 223]	1000 to 10000	–
NC(=O)c1cnc2[nH]ccc2c1NC1CCCN(C(=O)NCc2cc(Cl)cc(Cl)c2)C1 (stereo not shown) [Compound 224]	< 100	–
O=C(Nc1cc(Cl)cc(Cl)c1)C(=O)N1CCCC(Nc2ncnc3[nH]ccc23)C1 (stereo not shown) [Compound 225]	> 10000	–
NC(=O)c1cnc2[nH]ccc2c1N[C@H]1CCCN(C(=O)CNc2cc(Cl)cc(Cl)c2)[C@H]1C(F)(F)F [Compound 226]	< 100	IC50 (Tec): < 100 nM; IC50 (Itk): < 100 nM; IC50 (Txk): < 100 nM
NC(=O)c1cnc2[nH]ccc2c1N[C@@H]1CCCN(C(=O)CNc2cc(Cl)cc(Cl)c2)[C@@H]1C(F)(F)F [Compound 227]	< 100	–
NC(=O)c1cnc2[nH]ccc2c1NC1CCCN(C(=O)CNc2cc(Cl)cc(Cl)c2)C1C(F)(F)F (stereo not shown) [Compound 228]	< 100	–
NC(=O)c1cnc2[nH]ccc2c1NC1CCCN(C(=O)CNc2cc(F)cc(Cl)c2)C1 (stereo not shown) [Compound 229]	< 100	–
CN1CCN(C(=O)c2cnc3[nH]ccc3c2N[C@@H]2CCCN(C(=O)CNc3cc(Cl)cc(Cl)c3)C2)CC1 [Compound 230]	100 to 999	–
Nc1ncnc2c1ccn2C1CCCN(C(=O)CNc2cc(Cl)cc(Cl)c2)C1 (stereo not shown) [Compound 231]	1000 to 10000	–
Nc1ncnc2c1cnn2C1CCCN(C(=O)CNc2cc(Cl)cc(Cl)c2)C1 (stereo not shown) [Compound 232]	> 10000	–
Nc1ncnc2c1ncn2C1CCCN(C(=O)CNc2cc(Cl)cc(Cl)c2)C1 (stereo not shown) [Compound 233]	> 10000	–
